The text below walks through data of patent publication US20230027104A1, “NUTRITIONAL POWDER COMPRISING OLIGOPEPTIDES AND APPLICATIONS THEREOF” (Suzhou Jianyuan Biotechnology Co., Ltd., priority 2021, published 2023).

Marks after values point to notes of the source that are not given here. Some results are limits rather than exact numbers.

What all share (type): in vivo, human
Test [1] concerns healthy middle-aged men and women. As to the kind of experiment: Hangover cure and rehabilitation effect after excessive drinking of red wine (self-rated discomfort level). As to conditions: 1 cysteine tablet (1200 mg L-cysteine) before dinner. The method, then:
(§1) Thirty-six healthy middle-aged men and women were chosen and divided into four groups, namely, the control group, the cysteine group, the 5 g oligopeptide nutrition group (prepared in Example 3) and the 10 g oligopeptide nutrition group (prepared in Example 3), and they experienced the hangover cure and rehabilitation effect of the oligopeptide nutritional powder for excessive drinking of red wine. Ten to twenty minutes before dinner, 150 mL of plain boiled water at a temperature of 35° C. was prepared for each person. In the control group, the subjects only drank plain boiled water; in the cysteine group, the subjects took 1 cysteine tablet (each comprising 1200 mg L-cysteine, produced by U.S. Now Food) when drinking water; in the 5 g oligopeptide nutritional group, the subjects put 5 g of the oligopeptide nutritional powder into a cup, poured 150 mL of plain boiled water, stirred to dissolve and drink; in the 10 g oligopeptide nutritional group, the subjects put 10 g of the oligopeptide nutritional powder into a cup, poured 150 mL of plain boiled water, stirred to dissolve and drink.
Dinners started at 18:00 and ended at 20:00. Each of 36 subjects drank 400 mL of red wine (France Saint Arnaud Cabernet Sauvignon 2015, 13.5% vol. Cabernet Sauvignon). […] All subjects' forms were collected, and the subjects' conditions were recorded and analyzed by classification.

Test [2] has the same test system. As to the kind of experiment: Summary of hangover cure and rehabilitation effects on excessive drinking of liquor and red wine. As to conditions: liquor and red wine summarised, 1200 mg cysteine. The method, then:
as §1, with “3).” for “3), and they experienced the hangover cure and rehabilitation effect of the oligopeptide nutritional powder for excessive drinking of red wine.”, “dinner (at time 18:00),” for “dinner,”, “person in advance.” for “person.”
Dinners started at 18:00 and ended at 20:00. Each of 36 subjects drank 200 mL of liquor (Kweichow Moutai Liquor 2018, 53% vol. 106 PROOF) within two hours. The subjects' dinners were mainly Chinese stir-fried dishes, including fish, meat and vegetables, with rice as the staple food, and the dinners lasted two hours. In the next morning at 8:00 (12 hours after drinking) and in the third morning at 8:00 (36 hours after drinking), the subjects filled in the forms, indicating personal feelings. The personal feelings included 5 levels, namely, level 0 indicated no discomfort, level 1 indicated slight tiredness, level 2 indicated feeling of dizziness, level 3 indicated headache, level 4 indicated nausea or vomiting, requiring stay in bed. All subjects' forms were collected, and the subjects' conditions were recorded and analyzed by classification.
Thirty-six healthy middle-aged men and women were chosen and divided into four groups, namely, the control group, the cysteine group, the 5 g oligopeptide nutrition group (prepared in Example 3) and the 10 g oligopeptide nutrition group (prepared in Example 3), and they experienced the hangover cure and rehabilitation effect of the oligopeptide nutritional powder for excessive drinking of red wine. Ten to twenty minutes before dinner, 150 mL of plain boiled water at a temperature of 35° C. was prepared for each person. […]
Dinners started at 18:00 and ended at 20:00. […] All subjects' forms were collected, and the subjects' conditions were recorded and analyzed by classification.

Test [3] shares this test system. As to the kind of experiment: Hangover cure and rehabilitation effect after excessive drinking of liquor (self-rated discomfort level). As to conditions: 1 cysteine tablet (1200 mg L-cysteine) before dinner. As to the method:
as §1, with “3).” for “3), and they experienced the hangover cure and rehabilitation effect of the oligopeptide nutritional powder for excessive drinking of red wine.”, “dinner (at time 18:00),” for “dinner,”, “person in advance.” for “person.”
Dinners started at 18:00 and ended at 20:00. Each of 36 subjects drank 200 mL of liquor (Kweichow Moutai Liquor 2018, 53% vol. 106 PROOF) within two hours. […] All subjects' forms were collected, and the subjects' conditions were recorded and analyzed by classification.

A short description of test [4]: Effect on blood alcohol content after drinking liquor or red wine (breath alcohol tester). The method, then:
Thirty healthy middle-aged men and women were chosen and divided into three groups, namely, the control group, the cysteine group and the 10 g oligopeptide nutrition group. After drinking liquor and red wine, the effects of the oligopeptide nutritional powder on the blood alcohol contents were compared. Ten to twenty minutes before dinner, 150 mL of plain boiled water at a temperature of 35° C. was prepared for each person. In the control group, the subjects only drank plain boiled water; in the cysteine group, the subjects took 1 cysteine tablet (each comprising 1200 mg L-cysteine, produced by U.S. Now Food) when drinking water; in the 10 g oligopeptide nutritional group, the subjects put 10 g of the oligopeptide nutritional powder into a cup, poured 150 mL of plain boiled water, stirred to dissolve and drink.
Dinners started at 18:00 and ended at 20:00. Each of 30 subjects drank 200 mL of liquor (Kweichow Moutai Liquor 2018, 53% vol. 106 PROOF) or 400 mL of red wine (France Saint Arnaud Cabernet Sauvignon 2015, 13.5% vol. Cabernet Sauvignon) within two hours. The subjects' dinners were mainly Chinese stir-fried dishes, including fish, meat and vegetables, with rice as the staple food, and the dinners lasted two hours. Every 30 minutes after the start of drinking, the breath alcohol tester (Mr. Black-03) was used to test the blood alcohol content of each subject for four hours, then test once every two hours; on the 16th hour after drinking, the test was over. The data of the subjects were recorded separately, and the statistical analysis of data was performed by groups. The blood alcohol metabolism curve of each group was completed by Gaussian Fitting method. For oligopeptide nutritional powder, after 4 hours of excessive drinking of liquor and red wine, namely, 2 hours after the end of meals, the blood alcohol content was measured, as shown in Table 3.

Consider `N[C@@H](CS)C(=O)O` [cysteine tablets, L-cysteine], for which the “subjects with obvious discomfort (>2 degree of discomfort)” value in test [1] (12 hours after drinking 400 mL red wine) and in test [3] (12 hours after drinking 200 mL liquor) was 44.4% each time. Besides, the “subjects with obvious discomfort” value in test [1] (36 hours after drinking 400 mL red wine) and in test [3] (36 hours after drinking 200 mL liquor) was 22.2% in each case. The figures for the “Proportion of > degree 2 discomfort 12 hours after drinking wine” value in test [2] and in test [2] (listed as Cysteine) were 44.4% and 44.4%^b, respectively. The “Proportion of > degree 2 discomfort 36 hours after drinking wine” value in test [2] (listed as Cysteine) is 22.2%^a; in test [2] (listed as cysteine) it was 22.2%. For the same compound, in test [4] (200 mL liquor, 1200 mg cysteine before dinner, breath alcohol tester), the “Blood alcohol content 4 hours after drinking liquor” value is on record as 42.3 ± 3.1^b mg/100 mL. In test [4] (400 mL red wine, 1200 mg cysteine before dinner, breath alcohol tester), the “Blood alcohol content 4 hours after drinking red wine” value is 38.7 ± 6.8^ab mg/100 mL. The “blood alcohol content versus alcohol content threshold for drunk driving” value in test [4] (within 4 hours of drinking liquor or red wine, cysteine group (1200 mg)) is over 20 mg/100 mL.
